# Results: ChEMBL document CHEMBL1137791, “Cell division cycle 7 kinase inhibitors: 1H-pyrrolo[2,3-b]pyridines, synthesis and structure-activity relationships” (J Med Chem, 2009)
# Target: Cyclin-dependent kinase 2 (Homo sapiens, UniProt P24941)
# Experiment: Inhibition of Cdk2/cyclinA
# Settings: not given
row,SMILES,IC50 [nM]
1,O=C1N=C(NCc2ccccc2)S/C1=C\c1c[nH]c2ncccc12,< 50

# Target: Cell division cycle 7-related protein kinase (Homo sapiens, UniProt O00311)
# Experiment: Inhibition of Cdc7-mediated phosphorylation of Mcm2
# Settings: not given
# Cell division cycle 7-related protein kinase, sequence (O00311 whole entry): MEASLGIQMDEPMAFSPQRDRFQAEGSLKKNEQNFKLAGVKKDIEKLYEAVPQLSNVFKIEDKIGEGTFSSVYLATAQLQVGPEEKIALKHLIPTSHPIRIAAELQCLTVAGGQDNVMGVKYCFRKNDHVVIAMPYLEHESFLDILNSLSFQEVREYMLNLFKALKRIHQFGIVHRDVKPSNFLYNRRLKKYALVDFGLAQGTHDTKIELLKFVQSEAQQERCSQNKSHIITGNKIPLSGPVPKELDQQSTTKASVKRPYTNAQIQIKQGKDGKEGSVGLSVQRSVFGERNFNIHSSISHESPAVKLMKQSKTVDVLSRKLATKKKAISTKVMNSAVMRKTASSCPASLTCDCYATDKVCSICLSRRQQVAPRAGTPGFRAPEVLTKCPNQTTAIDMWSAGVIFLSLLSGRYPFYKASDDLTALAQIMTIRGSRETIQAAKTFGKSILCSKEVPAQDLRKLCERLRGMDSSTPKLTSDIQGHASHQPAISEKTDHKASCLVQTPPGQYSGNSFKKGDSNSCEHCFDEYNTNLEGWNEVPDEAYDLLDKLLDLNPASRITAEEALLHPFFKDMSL
row,SMILES,IC50 [nM]
1,O=C1NC(NCCO)=N/C1=C\c1c[nH]c2ncccc12,37
2,C[C@H](NC1=N/C(=C\c2c[nH]c3ncccc23)C(=O)N1)c1ccccc1,21
3,CC1CN(C2=N/C(=C\c3c[nH]c4ncccc34)C(=O)N2)CCO1 (stereo not given),66
4,O=C1NC(NCc2ccccc2)=N/C1=C\c1c[nH]c2ncccc12,20
5,Cc1ccc(C2=N/C(=C\c3c[nH]c4ncccc34)C(=O)N2)cc1,47
6,O=C1NC(NCc2ccco2)=N/C1=C\c1c[nH]c2ncccc12,15
7,O=C1NC(NC2CCCCC2)=N/C1=C\c1c[nH]c2ncccc12,21
8,CCNC1=N/C(=C\c2c[nH]c3ncccc23)C(=O)N1,45
9,O=C1NC(NCc2cccc(Cl)c2)=N/C1=C\c1c[nH]c2ncccc12,39
10,CC(C)(C)C1CCC(NC2=N/C(=C\c3c[nH]c4ncccc34)C(=O)N2)CC1 (stereo not given),207
11,O=C1N=C(NCc2ccco2)S/C1=C\c1c[nH]c2ncccc12,4
12,O=C1NC(c2ccccc2)=N/C1=C\c1c[nH]c2ncccc12,50
13,CC1CCC(NC2=N/C(=C\c3c[nH]c4ncccc34)C(=O)N2)CC1 (stereo not given),13
14,C[C@H](NC1=NC(=O)/C(=C/c2c[nH]c3ncccc23)S1)c1ccccc1,26
15,O=C1NC(NCc2ccc(Br)cc2)=N/C1=C\c1c[nH]c2ncccc12,127
16,O=C1NC(c2ccccc2)=N/C1=C\c1c[nH]c2ccccc12,> 10000
17,CCCCCNC1=N/C(=C\c2c[nH]c3ncccc23)C(=O)N1,35
18,Cc1ccc(CNC2=N/C(=C\c3c[nH]c4ncccc34)C(=O)N2)cc1,162
19,O=C1NC(NCC2CCCO2)=N/C1=C\c1c[nH]c2ncccc12 (stereo not given),21
20,O=C1NC(NCc2ccc(Cl)cc2)=N/C1=C\c1c[nH]c2ncccc12,86
21,O=C1NC(NCc2ccccc2)=N/C1=C\c1c[nH]c2ncc([N+](=O)[O-])cc12,130

row,SMILES,IC50 [nM]
1,CC(C)(C)CCNC1=N/C(=C\c2c[nH]c3ncccc23)C(=O)N1,24
2,CC(C)NC1=NC(=O)/C(=C/c2c[nH]c3ncccc23)S1,10
3,C/C(=C1/N=C(NCc2ccccc2)NC1=O)c1c[nH]c2ncccc12,> 10000
4,CC(=O)Nc1cnc2[nH]cc(/C=C3\N=C(NCc4ccccc4)NC3=O)c2c1,116
5,O=C1NC(NCCc2ccccc2)=N/C1=C\c1c[nH]c2ncccc12,18
6,O=C1N=C(NCc2ccccc2)S/C1=C\c1c[nH]c2ncccc12,9
7,Cc1cccc(C2=N/C(=C\c3c[nH]c4ncccc34)C(=O)N2)c1,30
8,O=C1NC(NCC23CC4CC(CC(C4)C2)C3)=N/C1=C\c1c[nH]c2ncccc12,128
9,Nc1cnc2[nH]cc(/C=C3\N=C(NCc4ccccc4)NC3=O)c2c1,238
10,O=C1NC(NCC2CCCCC2)=N/C1=C\c1c[nH]c2ncccc12,64
11,O=C1NC(NCc2cccc(Br)c2)=N/C1=C\c1c[nH]c2ncccc12,55
12,O=C1NC(N2CCOCC2)=N/C1=C\c1c[nH]c2ncccc12,47
13,CC(C)NC1=N/C(=C\c2c[nH]c3ncccc23)C(=O)N1,13
14,O=C1NC(NCc2ccccc2)=N/C1=C/c1c[nH]c2ncc([N+](=O)[O-])cc12,> 10000
15,O=C1NC(NCc2cccs2)=N/C1=C\c1c[nH]c2ncccc12,18
16,O=C1NC(NC2CC2)=N/C1=C\c1c[nH]c2ncccc12,33
17,Cc1cccc(CNC2=N/C(=C\c3c[nH]c4ncccc34)C(=O)N2)c1,50
18,CCCCCCCNC1=N/C(=C\c2c[nH]c3ncccc23)C(=O)N1,247
19,CC1CCN(C2=N/C(=C\c3c[nH]c4ncccc34)C(=O)N2)CC1,105
20,O=C1NC(c2cccnc2)=N/C1=C\c1c[nH]c2ncccc12,60
21,O=C1NC(N2CCCCC2)=N/C1=C\c1c[nH]c2ncccc12,25

# Target: CDK9/cyclin T1 (Homo sapiens, UniProt P50750)
# Sequence (O60563 whole entry): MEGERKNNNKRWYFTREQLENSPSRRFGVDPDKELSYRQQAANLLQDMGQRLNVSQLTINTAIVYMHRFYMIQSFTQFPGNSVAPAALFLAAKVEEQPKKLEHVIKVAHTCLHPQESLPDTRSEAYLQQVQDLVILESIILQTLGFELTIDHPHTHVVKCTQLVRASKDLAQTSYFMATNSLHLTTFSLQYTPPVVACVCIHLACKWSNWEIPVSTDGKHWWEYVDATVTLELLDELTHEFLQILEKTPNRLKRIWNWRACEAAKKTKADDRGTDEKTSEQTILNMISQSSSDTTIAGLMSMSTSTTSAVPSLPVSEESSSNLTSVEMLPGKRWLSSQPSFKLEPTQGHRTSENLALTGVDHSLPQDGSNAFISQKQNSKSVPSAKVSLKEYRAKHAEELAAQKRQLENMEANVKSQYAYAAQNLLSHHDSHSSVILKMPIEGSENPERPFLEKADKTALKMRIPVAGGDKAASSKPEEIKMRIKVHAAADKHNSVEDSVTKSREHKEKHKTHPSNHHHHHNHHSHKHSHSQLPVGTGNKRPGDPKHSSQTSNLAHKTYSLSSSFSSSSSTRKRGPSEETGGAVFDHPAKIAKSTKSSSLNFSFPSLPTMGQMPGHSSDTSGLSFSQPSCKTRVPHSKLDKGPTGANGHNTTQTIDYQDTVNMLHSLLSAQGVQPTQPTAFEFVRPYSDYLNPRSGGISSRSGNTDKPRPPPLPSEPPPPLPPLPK
# Sequence (P50750 whole entry): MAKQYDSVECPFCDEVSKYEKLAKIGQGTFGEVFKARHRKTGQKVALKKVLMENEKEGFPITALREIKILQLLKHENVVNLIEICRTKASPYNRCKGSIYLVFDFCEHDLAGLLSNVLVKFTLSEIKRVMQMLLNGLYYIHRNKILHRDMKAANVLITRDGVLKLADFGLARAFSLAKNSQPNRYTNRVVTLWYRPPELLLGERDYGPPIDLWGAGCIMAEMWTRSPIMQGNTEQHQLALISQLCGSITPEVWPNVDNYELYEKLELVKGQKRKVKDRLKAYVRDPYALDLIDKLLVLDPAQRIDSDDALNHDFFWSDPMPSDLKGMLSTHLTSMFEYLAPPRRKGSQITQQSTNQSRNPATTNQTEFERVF
# Experiment: Inhibition of Cdk9/cyclinT
# Type: protein-complex assay
# Settings: not given
row,SMILES,IC50 [nM]
1,O=C1NC(NCc2ccccc2)=N/C1=C\c1c[nH]c2ncccc12,95
2,O=C1NC(SCc2ccccc2)=N/C1=C\c1c[nH]c2ncccc12,6100
3,O=C1N=C(NCc2ccccc2)S/C1=C\c1c[nH]c2ncccc12,15

# Target: cAMP-dependent protein kinase catalytic subunit alpha (Homo sapiens, UniProt P17612)
# Experiment: Inhibition of PKAalpha
# Settings: not given
row,SMILES,IC50 [nM]
1,O=C1N=C(NCc2ccccc2)S/C1=C\c1c[nH]c2ncccc12,< 50

# Tested on: A2780
# Experiment: Antiproliferative activity against human A2780 cells after 72 hrs by firefly luciferase assay
# Type: functional, cell-based
# Settings: A2780, 72 h
row,SMILES,IC50 [nM]
1,C[C@H](NC1=N/C(=C\c2c[nH]c3ncccc23)C(=O)N1)c1ccccc1,380
2,O=C1NC(NCc2ccccc2)=N/C1=C\c1c[nH]c2ncccc12,1200
3,O=C1NC(NCc2ccco2)=N/C1=C\c1c[nH]c2ncccc12,4000
4,O=C1N=C(NCc2ccco2)S/C1=C\c1c[nH]c2ncccc12,1200
5,C[C@H](NC1=NC(=O)/C(=C/c2c[nH]c3ncccc23)S1)c1ccccc1,42
6,CC(C)NC1=NC(=O)/C(=C/c2c[nH]c3ncccc23)S1,1000
7,O=C1N=C(NCc2ccccc2)S/C1=C\c1c[nH]c2ncccc12,320
8,CC(C)NC1=N/C(=C\c2c[nH]c3ncccc23)C(=O)N1,8800
